Test results reported in PubChem BioAssay (NCI).
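Protocol summary: plate cells (96-well), add compound at 5 concentrations, incubate 48 h, interpolate endpoints linearly. Abbreviation: GI50, concentration required for 50% inhibition of growth. TGI marks complete inhibition of growth.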

Tests used:
Test in all cases: growth of human tumour cells (NCI), 48 h
[1] = system: SK-OV-3 ovarian
[2] = system: SW-620 colon
[3] = system: OVCAR-8 ovarian
[4] = system: HOP-62 NSCLC
[5] = system: M14 melanoma
[6] = system: SK-MEL-5 melanoma
[7] = system: ACHN renal
[8] = system: HOP-92 NSCLC
[9] = system: UACC-257 melanoma
[10] = system: OVCAR-3 ovarian

Structure (SMILES)	GI50 [1]	TGI [1]	GI50 [2]	TGI [2]	GI50 [3]	TGI [3]	GI50 [4]	TGI [4]	GI50 [5]	TGI [5]	GI50 [6]	TGI [6]	GI50 [7]	TGI [7]	GI50 [8]	TGI [8]	GI50 [9]	TGI [9]	GI50 [10]	TGI [10]
CC(C)N(Cc1ccc(F)cc1)c1ccc(CO)c(Cl)c1	4.83 µM	17.9 µM	0.363 µM	15.3 µM	10.6 µM	25 µM	1.14 µM	17.6 µM	13 µM	28.8 µM	8.67 µM	21.8 µM	8.08 µM	20.9 µM	0.205 µM	4.22 µM	0.0837 µM	0.316 µM	0.184 µM	0.623 µM
C#CCNC(=O)NC(CCCCNC(=O)OCc1ccccc1)C(=O)OCc1ccccc1 (centres undefined)		> 100 µM		> 100 µM		> 100 µM		> 100 µM		58.4 µM		35.1 µM		> 100 µM		54 µM		43.9 µM		> 100 µM
COc1ccc(-c2c3c(N)c4c(nc3nc3c2c(C)nn3-c2ccccc2)CCCC4)cc1	12.1 µM	24.6 µM	3.05 µM	11.8 µM	2.82 µM	11.4 µM	14.1 µM	29.3 µM	3.74 µM	13 µM	1.84 µM	3.85 µM	4.32 µM	15.1 µM			2.43 µM	9.38 µM	4.17 µM	15.3 µM
N#C/C(=C\c1cc2ccc(N3CCC3)cc2oc1=O)C(=O)N(CC(=O)O)CC(=O)O	> 100 µM	> 100 µM	> 100 µM	> 100 µM	> 100 µM	> 100 µM	> 100 µM	> 100 µM	> 100 µM	> 100 µM	> 100 µM	> 100 µM	> 100 µM	> 100 µM	> 100 µM	> 100 µM	> 100 µM	> 100 µM	> 100 µM	> 100 µM
COc1cc(-c2ncn(/C=C\c3nnco3)n2)cc(C(F)(F)F)c1	0.979 µM	> 100 µM	0.0663 µM	31.7 µM	0.0813 µM	> 47 µM	0.403 µM	> 47 µM	0.791 µM	37.2 µM	0.411 µM	4.39 µM	0.318 µM	> 100 µM	0.952 µM	46.5 µM	0.368 µM	> 52.5 µM	0.12 µM	2.69 µM
CC(=O)OCC(CC[CH2][Sn]([Cl])([Cl])[c]1ccccc1)OC(C)=O (centres undefined)	21.1 µM	44.2 µM	16.7 µM	30.3 µM	17.5 µM	32.9 µM	23.9 µM	46.8 µM	16.2 µM	29.7 µM	21.5 µM	55.5 µM	23.9 µM	42.6 µM	17.1 µM	33.4 µM	32.2 µM	95.4 µM	20 µM	42.8 µM
Cn1nc(-c2ccccc2)c(C(=O)/C=C/c2ccc(Cl)cc2)c(N2CCOCC2)c1=O		19.7 µM		21.5 µM		26.2 µM		33.7 µM		15.7 µM		17.2 µM		17 µM		9.36 µM				
O=C1C(Nc2cccc(O)c2)=C(Sc2ccccc2)C(=O)N1Cc1ccccc1	16.4 µM	35.3 µM	14.2 µM	33.4 µM	11.9 µM	26.9 µM	14.8 µM	28.8 µM	5.35 µM	19.5 µM	2.37 µM	17 µM	12.6 µM	31.6 µM					4.83 µM	19.9 µM
COc1ccc2c(c1)C(=O)c1c-2c(=O)n(CCCN(C)C)c2cc(OC)c(OC)cc12	5.15 µM	19.5 µM	1.71 µM	20.8 µM	4.6 µM	23 µM	0.682 µM	> 100 µM	6.65 µM	21.7 µM	86.1 µM	> 100 µM	2.76 µM	14.4 µM	> 100 µM	> 100 µM	16.9 µM	33 µM	13.7 µM	26.9 µM
O=C(Cc1ccccc1)C(c1ccccc1)S(=O)(=O)c1ccccc1 (centres undefined)		> 100 µM		> 100 µM		> 100 µM		> 100 µM		> 100 µM		> 100 µM		> 100 µM		> 100 µM		> 100 µM		> 100 µM
Cc1ccc(-n2c(-c3cc4c([nH]c5ccccc54)c(-c4cccc(O)c4)n3)n[nH]c2=S)cc1	1.18 µM	4.44 µM	0.406 µM	11.8 µM	0.442 µM	3.67 µM	1.24 µM	4.87 µM	1.1 µM	3.71 µM	1.32 µM	3.31 µM	2.37 µM	15.4 µM	4.76 µM	27.4 µM	2.03 µM	7.11 µM	0.399 µM	1.86 µM
CCOC(=O)C(Cc1ccc(N(CCCl)CCCl)cc1)NC(=O)C(Cc1ccccc1)NC(C)=O (centres undefined)		> 0.44 µM		> 1 µM		> 1 µM		> 0.431 µM		> 0.318 µM		> 0.486 µM		0.309 µM		> 1 µM		> 0.486 µM		0.361 µM
Cc1ccc(C2=Nc3ccccc3SC(c3cccc4c3OCO4)C2)cc1 (centres undefined)		76.3 µM		39.8 µM		65.3 µM		> 100 µM		34.9 µM		31.1 µM		53.8 µM				38.4 µM		28.5 µM
c1ccc2c(CNCCN3CCNCC3)c3ccccc3c(CNCCN3CCNCC3)c2c1	24.5 µM	79.8 µM	16.4 µM	49.3 µM	36.9 µM	> 100 µM	11.9 µM	36.1 µM	22.8 µM	60.4 µM	15.6 µM	35.2 µM	31.2 µM	> 100 µM			62 µM	> 100 µM	18.9 µM	51.7 µM
